Laboratory results reported in patent publication US9283222B2 (priority 2006, dated 2016).
Like-named read-outs stand apart in the source and are kept apart here.

Target: Recombinant Human Poly(ADP-Ribose) Polymerase (PARP), PARP-1 (Homo sapiens (Human), UniProt P09874)
Conditions: read-out: PARP-1 (Ki)
[1] = Table 1, text calls the values EC50s

Recombinant Human Poly(ADP-Ribose) Polymerase (PARP), PARP-1, sequence (P09874 whole entry): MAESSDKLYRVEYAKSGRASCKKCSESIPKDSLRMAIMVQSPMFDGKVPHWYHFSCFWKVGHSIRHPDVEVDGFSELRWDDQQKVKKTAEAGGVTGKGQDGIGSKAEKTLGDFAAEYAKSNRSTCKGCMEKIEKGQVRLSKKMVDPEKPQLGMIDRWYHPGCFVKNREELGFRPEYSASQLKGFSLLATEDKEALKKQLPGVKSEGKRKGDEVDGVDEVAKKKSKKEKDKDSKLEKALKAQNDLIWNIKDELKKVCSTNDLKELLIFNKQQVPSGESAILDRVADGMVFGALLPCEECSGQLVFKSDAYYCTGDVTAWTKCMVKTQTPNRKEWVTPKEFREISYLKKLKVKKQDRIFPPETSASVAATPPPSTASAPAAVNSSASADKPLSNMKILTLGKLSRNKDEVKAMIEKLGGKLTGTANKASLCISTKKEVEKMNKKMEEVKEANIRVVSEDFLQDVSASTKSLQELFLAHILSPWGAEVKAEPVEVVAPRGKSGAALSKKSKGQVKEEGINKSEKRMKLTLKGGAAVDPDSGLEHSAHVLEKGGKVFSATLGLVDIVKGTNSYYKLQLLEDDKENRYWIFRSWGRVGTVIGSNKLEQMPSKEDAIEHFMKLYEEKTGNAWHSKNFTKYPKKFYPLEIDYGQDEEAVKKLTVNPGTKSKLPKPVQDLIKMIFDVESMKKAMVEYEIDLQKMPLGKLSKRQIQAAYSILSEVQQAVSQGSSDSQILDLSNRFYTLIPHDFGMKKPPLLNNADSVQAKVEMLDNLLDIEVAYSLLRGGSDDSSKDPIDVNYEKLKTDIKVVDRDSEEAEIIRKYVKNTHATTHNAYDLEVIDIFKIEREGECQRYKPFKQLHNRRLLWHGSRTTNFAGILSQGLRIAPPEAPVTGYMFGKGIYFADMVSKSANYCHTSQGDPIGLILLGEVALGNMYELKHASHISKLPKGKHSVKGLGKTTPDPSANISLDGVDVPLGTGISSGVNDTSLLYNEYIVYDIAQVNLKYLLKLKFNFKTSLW

Row | Compound | Ki [1] | Ki (Table 3, H analogs versus para-F analogs)
1 | CCCCOc1ccc(C(=O)Nc2cccc(Cc3n[nH]c(=O)c4c3CCCC4)c2)cc1 [Example 190, 4-butoxy-N-(3-((4-oxo-3,4,5,6,7,8-hexahydrophthalazin-1-yl)methyl)phenyl)benzamide] | 263 nM | –
2 | CCN(CC)CCN(C)C(=O)c1cccc(Cc2n[nH]c(=O)c3c2CCCC3)c1 [Example 419, N-(2-(diethylamino)ethyl)-N-methyl-3-((4-oxo-3,4,5,6,7,8-hexahydrophthalazin-1-yl)methyl)benzamide] | 16 nM | –
3 | O=C(Nc1cc(Cc2n[nH]c(=O)c3c2CCCC3)ccc1F)NC1CCCC1 [Example 540, N-cyclopentyl-N′-{2-fluoro-5-[(4-oxo-3,4,5,6,7,8-hexahydrophthalazin-1-yl)methyl]phenyl}urea] | 204 nM | –
4 | O=C(NC1CCN(c2ccccn2)CC1)c1cc(Cc2n[nH]c(=O)c3c2NCCC3)ccc1F [Example 745, 2-fluoro-5-[(5-oxo-1,2,3,4,5,6-hexahydropyrido[2,3-d]pyridazin-8-yl)methyl]-N-(1-pyridin-2-ylpiperidin-4-yl)benzamide] | 8 nM | –
5 | O=C(NCCc1cccc(C(F)(F)F)c1)c1cccc(Cc2n[nH]c(=O)c3c2CCCC3)c1 [Example 394, 3-((4-oxo-3,4,5,6,7,8-hexahydrophthalazin-1-yl)methyl)-N-(2-(3-(trifluoromethyl)phenyl)ethyl)benzamide] | 22 nM | –
6 | O=C(NC1CCN(C(=O)c2cn[nH]c2)CC1)c1cc(Cc2n[nH]c(=O)c3c2NCCC3)ccc1F [Example 734, 2-fluoro-5-[(5-oxo-1,2,3,4,5,6-hexahydropyrido[2,3-d]pyridazin-8-yl)methyl]-N-[1-(1H-pyrazol-4-ylcarbonyl)piperidin-4-yl]benzamide] | 9 nM | –
7 | CC(C)S(=O)(=O)Nc1cccc(Cc2n[nH]c(=O)c3c2CCCC3)c1 [Example 115, N-(3-((4-oxo-3,4,5,6,7,8-hexahydrophthalazin-1-yl)methyl)phenyl)propane-2-sulfonamide] | 157 nM | –
8 | CCNC(=O)c1ccc(Cc2n[nH]c(=O)c3c2CCCC3)cn1 [Example 94, N-ethyl-5-((4-oxo-3,4,5,6,7,8-hexahydrophthalazin-1-yl)methyl)pyridine-2-carboxamide] | 856 nM | –
9 | CCCOc1ccc(C(=O)Nc2cccc(Cc3n[nH]c(=O)c4c3CCCC4)c2)cc1 [Example 235, N-(3-((4-oxo-3,4,5,6,7,8-hexahydrophthalazin-1-yl)methyl)phenyl)-4-propoxybenzamide] | 198 nM | –
10 | O=c1[nH]nc(Cc2cccc(-c3cccc(CNC4CC4)c3)c2)c2c1CCCC2 [Example 130, 4-((3′-((cyclopropylamino)methyl)-1,1′-biphenyl-3-yl)methyl)-5,6,7,8-tetrahydrophthalazin-1(2H)-one] | 24 nM | –
11 | O=C1CCCN1c1cccc(Cc2n[nH]c(=O)c3c2CCCC3)c1 [Example 100, 4-(3-(2-oxopyrrolidin-1-yl)benzyl)-5,6,7,8-tetrahydrophthalazin-1(2H)-one] | 39 nM | –
12 | CC1CC1C(=O)Nc1cccc(Cc2n[nH]c(=O)c3c2CCCC3)c1 (stereo not shown) [Example 137, 2-methyl-N-(3-((4-oxo-3,4,5,6,7,8-hexahydrophthalazin-1-yl)methyl)phenyl)cyclopropanecarboxamide] | 69 nM | –
13 | O=C(Nc1cccc(Cc2n[nH]c(=O)c3c2CCCC3)c1)c1c[nH]c2ccccc12 [Example 218, N-(3-((4-oxo-3,4,5,6,7,8-hexahydrophthalazin-1-yl)methyl)phenyl)-1H-indole-3-carboxamide] | 86 nM | –
14 | NC(=O)C1CCCN(C(=O)c2cccc(Cc3n[nH]c(=O)c4c3CCCC4)c2)C1 (stereo not shown) [drawing 44] | – | 19 nM
15 | O=C(NCCc1ccc(F)cc1)c1cccc(Cc2n[nH]c(=O)c3c2CCCC3)c1 [Example 387, N-(2-(4-fluorophenyl)ethyl)-3-((4-oxo-3,4,5,6,7,8-hexahydrophthalazin-1-yl)methyl)benzamide] | 44 nM | –
16 | O=C(Nc1ccc(Cc2n[nH]c(=O)c3c2CCCC3)cn1)c1ccccc1 [Example 106, N-(5-((4-oxo-3,4,5,6,7,8-hexahydrophthalazin-1-yl)methyl)pyridin-2-yl)benzamide] | 290 nM | –
17 | O=C(Nc1cccc(Cc2n[nH]c(=O)c3c2CCCC3)c1)c1cccc(I)c1 [Example 246, 3-iodo-N-(3-((4-oxo-3,4,5,6,7,8-hexahydrophthalazin-1-yl)methyl)phenyl)benzamide] | 52 nM | –
18 | COC(=O)c1cccc(CCc2n[nH]c(=O)c3c2CCCC3)c1 [Example 265, methyl 3-(2-(4-oxo-3,4,5,6,7,8-hexahydrophthalazin-1-yl)ethyl)benzoate] | 58 nM | –
19 | CCN(Cc1ccccc1)C(=O)c1cccc(Cc2n[nH]c(=O)c3c2CCCC3)c1 [Example 420, N-benzyl-N-ethyl-3-((4-oxo-3,4,5,6,7,8-hexahydrophthalazin-1-yl)methyl)benzamide] | 21 nM | –
20 | O=C(CCc1ccc(Cl)cc1)Nc1cccc(Cc2n[nH]c(=O)c3c2CCCC3)c1 [Example 169, 3-(4-chlorophenyl)-N-(3-((4-oxo-3,4,5,6,7,8-hexahydrophthalazin-1-yl)methyl)phenyl)propanamide] | 99 nM | –
21 | COc1ccc(CCNC(=O)c2cccc(Cc3n[nH]c(=O)c4c3CCCC4)c2)cc1 [Example 384, N-(2-(4-methoxyphenyl)ethyl)-3-((4-oxo-3,4,5,6,7,8-hexahydrophthalazin-1-yl)methyl)benzamide] | 40 nM | –
22 | O=C(Nc1ccc(Cc2n[nH]c(=O)c3c2CCCC3)cn1)c1cccnc1 [Example 108, N-(5-((4-oxo-3,4,5,6,7,8-hexahydrophthalazin-1-yl)methyl)pyridin-2-yl)nicotinamide] | 576 nM | –
23 | Cc1cc(C(=O)Nc2cccc(Cc3n[nH]c(=O)c4c3CCCC4)c2)c(C)o1 [Example 195, 2,5-dimethyl-N-(3-((4-oxo-3,4,5,6,7,8-hexahydrophthalazin-1-yl)methyl)phenyl)-3-furamide] | 177 nM | –
24 | O=C(c1cc(Cc2n[nH]c(=O)c3c2CCCC3)ccc1F)N1CCN(Cc2cccc(Cl)c2)CC1 [Example 514, 4-(3-{[4-(3-chlorobenzyl)piperazin-1-yl]carbonyl}-4-fluorobenzyl)-5,6,7,8-tetrahydrophthalazin-1(2H)-one] | 9 nM | –

Further lines, results first:

Row | Ki [1] | Ki (Table 3, H analogs versus para-F analogs) | Compound
25 | 1.1 nM | – | O=C(c1cc(Cc2n[nH]c(=O)c3c2CCCC3)ccc1F)N1CCN(c2ccncc2)CC1 [Example 497, 4-{4-fluoro-3-[(4-pyridin-4-ylpiperazin-1-yl)carbonyl]benzyl}-5,6,7,8-tetrahydrophthalazin-1(2H)-one]
26 | 2 nM | – | O=C(c1cc(Cc2n[nH]c(=O)c3c2CCCC3)ccc1F)N1CCN(C2CCCC2)CC1 [Example 575, 4-{3-[(4-cyclopentylpiperazin-1-yl)carbonyl]-4-fluorobenzyl}-5,6,7,8-tetrahydrophthalazin-1(2H)-one]
27 | 2.8 nM | – | CC(C)(C)OC(=O)NC1CCN(C(=O)c2cc(Cc3n[nH]c(=O)c4c3NCCC4)ccc2F)CC1 [Example 700, tert-butyl 1-{2-fluoro-5-[(5-oxo-1,2,3,4,5,6-hexahydropyrido[2,3-d]pyridazin-8-yl)methyl]benzoyl}piperidin-4-ylcarbamate]
28 | 0.7 nM | – | CCS(=O)(=O)N1CCN(C(=O)c2cc(Cc3n[nH]c(=O)c4c3NCCC4)ccc2F)CC1 [Example 594]
29 | 4 nM | – | O=C(c1cc(Cc2n[nH]c(=O)c3c2NCCC3)ccc1F)N1CCN(CCO)CC1 [Example 535, 8-(4-fluoro-3-{[4-(2-hydroxyethyl)piperazin-1-yl]carbonyl}benzyl)-2,3,4,6-tetrahydropyrido[2,3-d]pyridazin-5(1H)-one]
30 | 0.6 nM | – | CCN(CCNC(=O)C1CC1)C(=O)c1cc(Cc2n[nH]c(=O)c3c2CCCC3)ccc1F [Example 761, N-{2-[(cyclopropylcarbonyl)amino]ethyl}-N-ethyl-2-fluoro-5-[(4-oxo-3,4,5,6,7,8-hexahydrophthalazin-1-yl)methyl]benzamide]
31 | 1.1 nM | – | COc1ccc(C(=O)N2CCN(C(=O)c3cc(Cc4n[nH]c(=O)c5c4NCCC5)ccc3F)CC2)cc1 [Example 601, 8-(4-fluoro-3-{[4-(4-methoxybenzoyl)piperazin-1-yl]carbonyl}benzyl)-2,3,4,6-tetrahydropyrido[2,3-d]pyridazin-5(1H)-one]
32 | 1.6 nM | – | O=C(c1ccc2cc[nH]c2c1)N1CCN(C(=O)c2cc(Cc3n[nH]c(=O)c4c3NCCC4)ccc2F)CC1 [Example 611, 8-(4-fluoro-3-{[4-(1H-indol-6-ylcarbonyl)piperazin-1-yl]carbonyl}benzyl)-2,3,4,6-tetrahydropyrido[2,3-d]pyridazin-5(1H)-one]
33 | 1.5 nM | – | O=C(c1ccc(O)nc1)N1CCN(C(=O)c2cc(Cc3n[nH]c(=O)c4c3CCCC4)ccc2F)CC1 [Example 735, 4-[4-fluoro-3-({4-[(6-hydroxypyridin-3-yl)carbonyl]piperazin-1-yl}carbonyl)benzyl]-5,6,7,8-tetrahydrophthalazin-1(2H)-one]
34 | 1.2 nM | – | O=C(c1cc(Cc2n[nH]c(=O)c3c2CCCC3)ccc1F)N1CCN(c2cncnc2)CC1 [Example 757, 4-{4-fluoro-3-[(4-pyrimidin-5-ylpiperazin-1-yl)carbonyl]benzyl}-5,6,7,8-tetrahydrophthalazin-1(2H)-one]
35 | 3 nM | – | O=C(c1cc(Cc2n[nH]c(=O)c3c2CCCC3)ccc1F)N1CCN(c2ccccc2)CC1 [Example 515, 4-{4-fluoro-3-[(4-phenylpiperazin-1-yl)carbonyl]benzyl}-5,6,7,8-tetrahydrophthalazin-1(2H)-one]
36 | 1.3 nM | – | CC(C)(C)C(=O)N1CCN(C(=O)c2cc(Cc3n[nH]c(=O)c4c3NCCC4)ccc2F)CC1 [Example 593, 8-(3-{[4-(2,2-dimethylpropanoyl)piperazin-1-yl]carbonyl}-4-fluorobenzyl)-2,3,4,6-tetrahydropyrido[2,3-d]pyridazin-5(1H)-one]
37 | 2.8 nM | – | O=C(c1ccccn1)N1CCCN(C(=O)c2cc(Cc3n[nH]c(=O)c4c3NCCC4)ccc2F)CC1 [Example 684, 8-(4-fluoro-3-{[4-(pyridin-2-ylcarbonyl)-1,4-diazepan-1-yl]carbonyl}benzyl)-2,3,4,6-tetrahydropyrido[2,3-d]pyridazin-5(1H)-one]
